Assay results as given in patent USRE47689E1, “Compounds for treating spinal muscular atrophy” (PTC Therapeutics, Inc., priority 2011, dated 2019).
Where two headings read alike, the source gives them in different places.

Tests used:
[1] = tested on: SMN2 minigene (full length SMN2 minigene mRNA containing SMN2 exon 7); assay: SMN2 minigene mRNA splicing RT-qPCR assay in cultured cells; type: cell-based, human; settings: Homo sapiens, HEK293-H, read-out: EC1.5x for production of full length SMN2 mRNA
Method in brief: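 HEK293H cells stably carrying the SMN2-A minigene treated 24 h at 37° C with compound (DMSO, 200× stock), then lysed. Multiplex RT-qPCR (SMN primers 0.4 μM final; 40 cycles) measures full-length exon 7-containing minigene mRNA, normalized to GAPDH and to vehicle; EC1.5x derived and binned by stars.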

Smn protein = Smn protein assay in cultured cells (SMN HTRF); type: cell-based, human; settings: for EC1.5x (concentration giving 1.5-fold Smn protein increase): read-out: EC1.5x for Smn protein expression
Method in brief: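 Lysates in RIPA with protease inhibitors are incubated overnight at room temperature with HTRF anti-SMN antibodies. EC1.5x is derived from fold increase in ΔF over vehicle.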

[2] = HEK293H cells stably transfected with SMN2-A minigene, 24 hours, 7-point concentration curve, 1.5-fold relative to vehicle-treated cells
[3] = SMA patient fibroblast cells, 48 hours, 7-point concentration data, fold increase relative to vehicle control (SMN HTRF)
[4] = SMA Type 1 patient fibroblast cells (GM03813), 48 hours, 7-point concentration curve, SMN HTRF, concentration producing 1.5 times Smn protein vs DMSO vehicle control

Row | Structure (SMILES) | EC (1.5-fold) [1, 2] [µM] | maximum fold (Fold) increase of Smn protein (Smn protein; [3]) | melting point [°C] | EC (1.5-fold) ([1]; 24 h) [µM] | EC1.5x (concentration giving 1.5-fold Smn protein increase) (Smn protein; [4]) [nM] | maximum fold (Fold) increase of Smn protein (Smn protein) | EC1.5x (concentration giving 1.5-fold Smn protein increase) (Smn protein) [nM]
1 | Cc1cn2cc(-c3cc4ccc(N[C@@H]5CCN(C(C)C)C5)cc4oc3=O)nc2c(C)n1 [Compound 733, 3-(6,8-dimethylimidazo[1,2-a]pyrazin-2-yl)-7-{[(3R)-1-(propan-2-yl)pyrrolidin-3-yl]amino}-2H-chromen-2-one] | < 0.1 | *** (fold increase between >1.35 and ≤1.5) | 200 to 207 | – | – | – | –
2 | CN1CCCN(c2ccc3cc(-c4cn5cc(F)cc(F)c5n4)c(=O)oc3c2)CC1 [Cpd 520, 3-(6,8-difluoroimidazo[1,2-a]pyridin-2-yl)-7-(4-methyl-1,4-diazepan-1-yl)-2H-chromen-2-one] | 0.3 to 1 | ** (fold increase between >1.2 and ≤1.35) | 255 to 260 | – | – | – | –
3 | COc1ccc(-c2cc3ccc(N4C[C@@H](C)N[C@@H](C)C4)cc3oc2=O)cc1C [Compound 543, 7-[(3R,5S)-3,5-dimethylpiperazin-1-yl]-3-(4-methoxy-3-methylphenyl)-2H-chromen-2-one] | 1 to 3 | * (maximum fold increase of ≤1.2) | 111 to 113 | – | – | – | –
4 | O=c1oc2cc(N3CCNCC3)ccc2cc1-c1ccncc1F [Compound 126, 3-(3-fluoropyridin-4-yl)-7-(piperazin-1-yl)-2H-chromen-2-one] | – | * (maximum fold increase of ≤1.2) | 202 to 204 | 3 to 30 | – | – | –
5 | Cc1cccc2nc(-c3cc4ccc(N5CCNCC5)cc4oc3=O)cn12 [Compound 132, 3-(5-methylimidazo[1,2-a]pyridin-2-yl)-7-(piperazin-1-yl)-2H-chromen-2-one] | 1 to 3 | * (maximum fold increase of ≤1.2) | 239 to 249 | – | – | – | –
6 | Cc1cn2cc(-c3cc4ccc(N[C@@H]5CCNC5)cc4oc3=O)nc2c(C)n1 [Compound 564, 3-(6,8-dimethylimidazo[1,2-a]pyrazin-2-yl)-7-[(3R)-pyrrolidin-3-ylamino]-2H-chromen-2-one] | < 0.1 | ***** (fold increase >1.65) | 290 to 300 | – | < 300 | – | –
7 | Cc1cn2cc(-c3cc4ccc(N5CCN(CCCF)[C@@H](C)C5)cc4oc3=O)nc2c(C)n1 [Compound 900, 3-(6,8-dimethylimidazo[1,2-a]pyrazin-2-yl)-7-[(3S)-4-(3-fluoropropyl)-3-methylpiperazin-1-yl]-2H-chromen-2-one] | < 0.1 | ***** (fold increase >1.65) | 215 to 217 | – | < 300 | – | –
8 | CNCCCCc1ccc2cc(-c3cn4cc(C)nc(C)c4n3)c(=O)oc2c1 [Compound 952, 3-(6,8-dimethylimidazo[1,2-a]pyrazin-2-yl)-7-[4-(methylamino)butyl]-2H-chromen-2-one] | < 0.1 | ***** (fold increase >1.65) | 180 to 184 | – | < 300 | – | –
9 | Cc1cn2cc(-c3cc4ccc(N(C)[C@H]5CCNC5)cc4oc3=O)nc2c(C)n1 [Cpd 620, 3-(6,8-dimethylimidazo[1,2-a]pyrazin-2-yl)-7-{methyl[(3S)-pyrrolidin-3-yl]amino}-2H-chromen-2-one] | < 0.1 | **** (fold increase between >1.5 and ≤1.65) | 192 to 202 | – | < 300 | – | –
10 | COc1cccn2cc(-c3cc4ccc(N5CCNCC5)cc4oc3=O)nc12 [Compound 402, 3-(8-methoxyimidazo[1,2-a]pyridin-2-yl)-7-(piperazin-1-yl)-2H-chromen-2-one] | 3 to 30 | * (maximum fold increase of ≤1.2) | 236 to 240 | – | – | – | –
11 | Cc1cn2cc(-c3cc4ccc(OCCNCC(C)O)cc4oc3=O)nc2c(C)n1 (stereo not drawn) [Compound 961, 3-(6,8-dimethylimidazo[1,2-a]pyrazin-2-yl)-7-{2-[(2-hydroxypropyl)amino]ethoxy}-2H-chromen-2-one] | < 0.1 | *** (fold increase between >1.35 and ≤1.5) | 185 to 188 | – | < 300 | – | –
12 | Cc1nccn2cc(-c3cc4ccc(N5CCN(C)CC5)cc4oc3=O)cc12 [Compound 557, 7-(4-methylpiperazin-1-yl)-3-(1-methylpyrrolo[1,2-a]pyrazin-7-yl)-2H-chromen-2-one] | 0.3 to 1 | *** (fold increase between >1.35 and ≤1.5) | 190 to 192 | – | – | – | –
13 | Cc1cn2cc(-c3cc4ccc(N5CCN(C)[C@@H](C)C5)cc4oc3=O)nc2c(C)n1 [Compound 672, 3-(6,8-dimethylimidazo[1,2-a]pyrazin-2-yl)-7-[(3S)-3,4-dimethylpiperazin-1-yl]-2H-chromen-2-one] | < 0.1 | **** (fold increase between >1.5 and ≤1.65) | 211 to 215 | – | < 300 | – | –
14 | CCc1cc(C)cn2cc(-c3cc4ccc(N5CCNCC5)cc4oc3=O)nc12 [Compound 334, 3-(8-ethyl-6-methylimidazo[1,2-a]pyridin-2-yl)-7-(piperazin-1-yl)-2H-chromen-2-one] | 0.1 to 0.3 | * (maximum fold increase of ≤1.2) | 198 to 208 | – | – | – | –
15 | C[C@@H]1CN(c2cc(F)c3cc(-c4cn5cccc(Cl)c5n4)c(=O)oc3c2)CCN1 [Compound 390, 3-(8-chloroimidazo[1,2-a]pyridin-2-yl)-5-fluoro-7-[(3R)-3-methylpiperazin-1-yl]-2H-chromen-2-one] | 0.1 to 0.3 | *** (fold increase between >1.35 and ≤1.5) | 266 to 276 | – | – | – | –
16 | Cc1cc(F)cn2cc(-c3cc4ccc(N5CCCN(C)CC5)cc4oc3=O)nc12 [Compound 330, 3-(6-fluoro-8-methylimidazo[1,2-a]pyridin-2-yl)-7-(4-methyl-1,4-diazepan-1-yl)-2H-chromen-2-one] | 0.3 to 1 | * (maximum fold increase of ≤1.2) | 191 to 198 | – | – | – | –
17 | Cc1cc(F)c2nc(-c3cc4ccc(N5CCN6CCC[C@H]6C5)cc4oc3=O)cn2c1 [Compound 560, 3-(8-fluoro-6-methylimidazo[1,2-a]pyridin-2-yl)-7-[(8aS)-hexahydropyrrolo[1,2-a]pyrazin-2(1H)-yl]-2H-chromen-2-one] | 0.1 to 0.3 | **** (fold increase between >1.5 and ≤1.65) | 296 to 306 | – | < 300 | – | –
18 | Cc1cn2cc(-c3cc4ccc(N5C[C@H]6CN(C)C[C@H]6C5)cc4oc3=O)cc2c(C)n1 [Compound 756, 3-(1,3-dimethylpyrrolo[1,2-a]pyrazin-7-yl)-7-[(3aR,6aS)-5-methylhexahydropyrrolo[3,4-c]pyrrol-2(1H)-yl]-2H-chromen-2-one] | < 0.1 | *** (fold increase between >1.35 and ≤1.5) | 146 to 150 | – | – | – | –
19 | O=c1oc2c(F)c(N3CCNCC3)ccc2cc1-c1ccccn1 [Compound 155, 8-fluoro-7-(piperazin-1-yl)-3-(pyridin-2-yl)-2H-chromen-2-one] | – | * (maximum fold increase of ≤1.2) | 147 to 153 | 3 to 30 | – | – | –
20 | Cc1nc(Cl)cn2cc(-c3cc4ccc(N5CCN(C)CC5)cc4oc3=O)nc12 [Compound 764, 3-(6-chloro-8-methylimidazo[1,2-a]pyrazin-2-yl)-7-(4-methylpiperazin-1-yl)-2H-chromen-2-one] | < 0.1 | ** (fold increase between >1.2 and ≤1.35) | 217 to 220 | – | – | – | –
21 | CN1CCCN(c2ccc3cc(-c4cc5ccccn5n4)c(=O)oc3c2)CC1 [Compound 193, 7-(4-methyl-1,4-diazepan-1-yl)-3-(pyrazolo[1,5-a]pyridin-2-yl)-2H-chromen-2-one] | 0.1 to 0.3 | ** (fold increase between >1.2 and ≤1.35) | 159 to 163 | – | 3000 to 10000 | – | –
22 | Cc1cn2cc(-c3cc4ccc(C5=CCN(C(C)C)CC5)cc4oc3=O)nc2c(C)n1 [Compound 802, 3-(6,8-dimethylimidazo[1,2-a]pyrazin-2-yl)-7-[1-(propan-2-yl)-1,2,3,6-tetrahydropyridin-4-yl]-2H-chromen-2-one] | – | – | 207 to 217 | < 0.1 | – | **** (key: *: maximum fold increase of ≤1.2; **: fold increase between >1.2 and ≤1.35; ***: fold increase between >1.35 and ≤1.5; ****: fold increase between >1.5 and ≤1.65; *****: fold increase >1.65) | < 300
23 | Cc1cn2cc(-c3cc4ccc(N5CC[C@H](N(C)C)C5)cc4oc3=O)ccc2n1 [Compound 717, 7-[(3S)-3-(dimethylamino)pyrrolidin-1-yl]-3-(2-methylimidazo[1,2-a]pyridin-6-yl)-2H-chromen-2-one] | 0.3 to 1 | *** (fold increase between >1.35 and ≤1.5) | 230 to 234 | – | – | – | –
